Structure (SMILES)	melting point
NC(=S)NCCc1ccccc1	150 to 152 °C
O=C(c1ccccc1)c1ccc(N2CCOCC2)cc1	142 to 145 °C
NC(C(=O)O)(c1ccccc1)c1ccccc1	244 to 247 °C
OC1(c2ccccc2)c2ccccc2-c2ccccc21	107 to 110 °C
CCOC(=O)Cc1ccc(N)cc1	48 to 50 °C
Cc1ccc(S(=O)(=O)C2(C(=O)OC(C)C)CC2)cc1	65.5 °C
Cc1cccc(C(C)(C)C)c1N=C=O	37 °C
O=C(C(Br)Br)C(Br)(Br)Br	79.5 °C
CC(C)(C)N(NC(=O)c1ccccc1)C(=O)c1ccc(C#N)cc1	200 °C
Nc1cccc2c(N)cccc12	190 °C
CCSCCO	-100 °C
NC(=O)NNC(N)=O	247 to 250 °C
Clc1ccc(Cl)c(CBr)c1	41 °C
O=C(O)COc1cccc(CBr)c1	126 °C
Brc1ccc(Oc2c(Br)cccc2Br)c(Br)c1	96 to 97 °C
CNC(=O)N(C)C	75.5 °C
COc1ccc(OC)c(C(C)=O)c1O	49 to 51 °C
Cc1cc(C(F)(F)F)n2nc(N)c(/N=N/c3cc(Cl)c(Cl)cc3Cl)c2n1	228 °C
O=C(O)C1=Cc2cc(Cl)ccc2OC1	245 °C
CC(C=CC1(O)C(C)=CC(=O)CC1(C)C)=CC(=O)O (centres undefined)	160 °C
Cc1c(C)c(C)c2c(=O)n3ccccc3cc2c1C	221 °C
O=C(O)c1cccc2c1OCCO2	189 to 191 °C
O=C(Nc1cccc(Cl)c1)OCC#CCCl	75 °C
Oc1ccc2ccccc2c1/N=N/c1ccc(/N=N\c2ccccc2)cc1	199 °C
OCc1csc(-c2ccccc2)n1	65 to 69 °C
CC1=C(C)C(=O)c2ccccc2C1=O	127 °C

Structure (SMILES)	melting point
CNC(=S)C#N	37 to 46 °C
CC(=O)Nc1ccc2c(NC(C)=O)c(O)ccc2c1	235 °C
CC(=O)c1c(C)n(O)c2ccc3nonc3c12	301 to 303 °C
N#Cc1ccc(Cl)cc1F	60 °C
COC(=O)c1cc(Cl)cc(C(=O)OC)c1	78 to 80 °C
COC(=O)C1C2(C)C=CC(O2)C1(OC)OC (centres undefined)	60 to 62 °C
COc1cc(-c2nnc3n2N=C(C(C)C)CS3)cc(OC)c1OC	157 °C
O=C(Oc1ccc(OC(=O)c2ccccc2)cc1)c1ccccc1	115 °C
CN1CCN(C)c2cc(C#N)ccc21	80 to 82 °C
O=C(c1ccc(C(=O)C(Cl)(Cl)Cl)cc1)C(Cl)(Cl)Cl	121 °C
CNC(=O)ON=C(SC)C(=O)N(C)C	101 °C
CC(C)(N)P(=O)(O)O	287 to 290 °C
O=C(Nc1cccc(C(F)(F)F)c1)Nc1nnc(-c2ccc(Cl)cc2)o1	236 to 238 °C
CC1=NN(c2ccc(S(=O)(=O)O)cc2)C(=O)C1	300 °C
CCOC(=O)Cn1nc(-c2ccccc2)c2ccccc2c1=O	224 °C
CC1(c2ccc([N+](=O)[O-])cc2)Nn2c(nnc2C(F)(F)F)S1 (centres undefined)	255 °C
CC1=C(C(=O)OC(C)C)C(c2ccccc2)NC(=S)N1 (centres undefined)	177 °C
OCC(CO)(CO)CBr	76 °C
CC(O)C(C)C(N)C(=O)O (centres undefined)	200 °C
Cc1c(Br)cc(N)c(N)c1C	70 to 74 °C
O=C(Nc1ccccc1C#CC#Cc1ccccc1NC(=O)c1ccccc1)c1ccccc1	211 °C
C[Si](C)(C)O[Si](C)(C)C	-59 °C
CCCN	-83 °C
Cc1ccc(C(=O)C=Cc2ccc(F)cc2)cc1	119 to 121 °C
O=C1CCc2cc(Cl)ccc21	94 °C
Cn1cnnc1-c1cccc(N)c1	158 to 159 °C

Structure (SMILES)	melting point
O=C(O)CN1C(=O)c2ccccc2C1=O	195 to 198 °C
CNCCCCCCN(C)N(O)N=O	102 to 108 °C
c1ccc(Nc2ccc3ccccc3c2)cc1	108 °C
CCCCOc1ccc(CO)cc1	29 to 32 °C
FC(F)(F)Oc1ccccc1	-50 °C
Nc1c(C=O)c(=O)oc2ccccc12	267 to 268 °C
C=C=CC	-136 °C
Cc1cc(N=Nc2ccccc2)c(C(C)C)cc1N=Nc1ccccc1	108 °C
Clc1cc2c(oc3c(Cl)c(Cl)c(Cl)cc32)c(Cl)c1Cl	240 °C
CC(C)(C)c1cc(CC(=O)O)cc(C(C)(C)C)c1O	157 to 158 °C
COc1cc(I)c(OC)cc1I	171 to 173 °C
CCOc1ccc(C(=O)C=CC(=O)O)cc1	140 to 144 °C
Clc1ccc(Nc2ncnc3c2cnn3-c2ccccc2)cc1	218 to 220 °C
O=C(O)Cc1ccccc1CC(=O)O	151 °C
O=C(c1ccc(Cl)cc1)c1noc(-c2cccc3ccccc23)c1S(=O)(=O)c1ccccc1	150 °C
c1ccc(-c2cccc(-c3ccccc3)c2)cc1	87 °C
COc1ccc(C=Nn2c(C)cc(C)c(C#N)c2=O)cc1	249 to 250 °C
BrCc1ccc(-n2cccc2)cc1	86 to 91 °C
Cc1cc(C)n2nc(N)c(/N=N/c3cccc([N+](=O)[O-])c3)c2n1	263 °C
Cc1ccc(C(c2ccc(C(c3ccc(C)o3)c3ccc(C)o3)cc2)c2ccc(C)o2)o1	156 °C
N#CC1=C(N)Oc2c(c(C(F)(F)F)nn2-c2ccccc2)C1c1ccccc1Cl (centres undefined)	166 °C
CN(C)CCOC1=Cc2ccccc2Sc2ccc(Cl)cc21	90 °C
COc1ccc(-n2ncc(C(=O)Cl)c2C)cc1	86 °C
O=C1/C(=N\O)C(c2ccc([N+](=O)[O-])cc2)=NN1c1ccccc1	222 to 224 °C
O=C(O)c1ccc(NC(=O)C(Cc2ccc(O)cc2)NC(=O)c2ccccc2)cc1 (centres undefined)	241 °C
COc1c2occc2cc2ccc(=O)oc12	148 °C

Structure (SMILES)	melting point
CC(=O)Nc1ccc(C#N)cc1OC(F)(F)F	118 to 120 °C
O=C1C=C2CC3(O)COc4c(ccc(O)c4O)C3=C2C=C1O (centres undefined)	180 °C
CCOC(=O)CN(CCCN(CC(=O)OCC)S(=O)(=O)c1ccc(C)cc1)S(=O)(=O)c1ccc(C)cc1	130 °C
Nc1ccc(C(=O)O)cc1O	211 to 215 °C
CC1(C(=O)O)CCC(CCc2ccccc2)C1(C)C (centres undefined)	118 °C
NS(=O)(=O)c1cccc(Cl)c1Cl	220 °C
C1CCCCCC2OC2CCCC1 (centres undefined)	-7 °C
Nc1nc2ccccc2n1Cc1ccc(Cl)cc1	197 to 199 °C
O=C(O)c1ccc(C(=O)O)o1	342 °C
CC(=O)CS(=O)(=O)c1ccccc1	55 to 59 °C
C=CCN1C(=O)C(CC(C)C)NC1=S (centres undefined)	210 °C
Cc1ccc(O[C@H]2CC[C@@]3(C)C(=CC[C@H]4[C@@H]5CC[C@H]([C@H](C)CCCC(C)C)[C@@]5(C)CC[C@@H]43)C2)cc1	148 °C
O=Nc1ccc(Nc2ccccc2)cc1	143 °C
Cn1nc(C(=O)O)cc1-c1ccco1	142 to 144 °C
COC(=O)c1c2c(c(C)c3c1C(C)C3=O)C(=O)C2 (centres undefined)	150 °C
CC(=CNNc1nc(C)cc(C)n1)c1ccncc1	214 to 216 °C
CCCCCOC(=O)CCC(=O)OCCCCC	-10.8 °C
CCOC(=O)C(C#N)=NNc1ccc(C(=O)O)cc1	219 °C
CC(=O)OC1(C(C)=O)CCC2C3CC(C(F)(F)F)C4=CC(=O)CCC4(C)C3CCC21C (centres undefined)	206 °C
COc1ccc(CNc2ccc([N+](=O)[O-])c3nonc23)cc1	176 to 180 °C
COc1cc(C(C)=O)cc(OC)c1OC	81 °C
O=C1CC[C@H]2CCc3ccccc3[C@@H]2O1	138 to 141 °C
CC(=O)Nc1ccc(Br)cc1F	156 °C
CC12CCC(C(=O)/C(=C\c3ccccc3[N+](=O)[O-])C1=O)C2(C)C (centres undefined)	140 to 141 °C
CC(C)C(C)C(O)C(O)C(C)C1CCC2C3COC(=O)C4CC(O)C(O)CC4(C)C3CCC12C (centres undefined)	255 °C
CCCCCCN(CCCCCC)C(=O)COC(=O)c1ccccc1	162 °C

Structure (SMILES)	melting point
CCOC(=O)c1cn[nH]c1NC(=O)Nc1ccc(F)cc1	255 to 257 °C
O=C1OC(=O)c2c(Cl)cccc21	123 to 126 °C
O=C1c2ccccc2C(=O)N1CCOCCCl	72 to 73 °C
FC(F)(F)c1cc(Cl)c(Cl)c(Cl)c1	-10 to -8 °C
CC(=NO)c1cccs1	113 to 114 °C
OCc1cc(C(F)(F)F)ccc1Cl	59 °C
O=[N+]([O-])c1ccccc1OCCOc1ccccc1[N+](=O)[O-]	169 °C
C=CCOC1=NS(=O)(=O)c2ccccc21	138 °C
CC=CC=CCCCCCCCO	32 °C
O=C(O)c1ccc(-c2cccs2)s1	177 to 178 °C
Cc1c(O)ccc(O)c1C	224 °C
CCCCCCCCCCCCCCCCC#N	34 °C
COc1ccc(-c2noc(C)c2C(=O)O)cc1	190 to 195 °C
OCc1ccc(-n2cccn2)cc1	76 to 80 °C
O=C1NC(=S)NC(=O)C1=NNc1ccccc1	290 °C
c1ccc(-c2cccc3cccc(-c4ccccc4)c23)cc1	147 °C
CCCCOCCOCCO	-68 °C
CCCCCCCOCC	-68.3 °C
NC(=O)c1cc(O)c(O)c(O)c1	240 to 243 °C
c1ccc2c(c1)Cc1ccccc1S2	128 °C
Clc1ncnc2[nH]cnc12	300 °C
CN1CCN(Cc2cccc(I)c2)CC1	81 to 83 °C
Nc1cn[nH]c1	81 °C
O=C(O)C1CC(=O)N(Cc2ccc(C(F)(F)F)cc2)C1 (centres undefined)	128 to 130 °C
CC1=CCC(C(=O)O)C1(C)C (centres undefined)	40.5 °C

— a melting point compilation (Tetko et al.)
